# Assay results from patent publication US20110218217A1, “PIPERIDYLPROPIONAMIDE DERIVATIVES USEFUL FOR THE TREATMENT OF CNS DISORDERS INCLUDING DEPRESSION AND PANIC DISORDER” (NEUROSEARCH A/S, priority 2008, published 2011).
# Where two headings read alike, the source gives them in different places.
# Legend:
# Assay type in all cases: biochemical
# [1] = molecular target: T1, reuptake of dopamine (DA) in synaptosomes (Rattus norvegicus, UniProt P23977); test: Inhibition of DA reuptake in synaptosomes
# T1 construct: in synaptosomes as described in WO 97/16451 (NeuroSearch A/S); from tissue
# Experimental: (§1) Compounds were tested for their ability to inhibit the reuptake of the monoamine neurotransmitters dopamine (DA) noradrenaline (NA) and serotonine (5-HT) in synaptosomes as described in WO 97/16451 (NeuroSearch A/S).
# (§2) The test values are given as IC50 (the concentration (μM) of the test substance which inhibits the specific binding of ^3H-DA, ^3H-NA, or ^3H-5-HT by 50%).
# [2] = molecular target: T2, reuptake of serotonine (5-HT) in synaptosomes (Rattus norvegicus, UniProt P31652); test: Inhibition of 5-HT reuptake in synaptosomes; conditions: 3H-5-HT, read-out: 5-HT-uptake IC50
# T2 construct: in synaptosomes as described in WO 97/16451 (NeuroSearch A/S); from tissue
# Experimental: as §1, §2
# [3] = molecular target: T3, reuptake of noradrenaline (NA) in synaptosomes (Rattus norvegicus, UniProt Q63380); test: Inhibition of NA reuptake in synaptosomes
# T3 construct: in synaptosomes as described in WO 97/16451 (NeuroSearch A/S); from tissue
# Experimental: as §1, §2
# [4] = 3H-DA, synaptosomes, read-out: DA-uptake IC50
# [5] = 3H-NA, synaptosomes, read-out: NA-uptake IC50
# T3 sequence (Q63380 1-617): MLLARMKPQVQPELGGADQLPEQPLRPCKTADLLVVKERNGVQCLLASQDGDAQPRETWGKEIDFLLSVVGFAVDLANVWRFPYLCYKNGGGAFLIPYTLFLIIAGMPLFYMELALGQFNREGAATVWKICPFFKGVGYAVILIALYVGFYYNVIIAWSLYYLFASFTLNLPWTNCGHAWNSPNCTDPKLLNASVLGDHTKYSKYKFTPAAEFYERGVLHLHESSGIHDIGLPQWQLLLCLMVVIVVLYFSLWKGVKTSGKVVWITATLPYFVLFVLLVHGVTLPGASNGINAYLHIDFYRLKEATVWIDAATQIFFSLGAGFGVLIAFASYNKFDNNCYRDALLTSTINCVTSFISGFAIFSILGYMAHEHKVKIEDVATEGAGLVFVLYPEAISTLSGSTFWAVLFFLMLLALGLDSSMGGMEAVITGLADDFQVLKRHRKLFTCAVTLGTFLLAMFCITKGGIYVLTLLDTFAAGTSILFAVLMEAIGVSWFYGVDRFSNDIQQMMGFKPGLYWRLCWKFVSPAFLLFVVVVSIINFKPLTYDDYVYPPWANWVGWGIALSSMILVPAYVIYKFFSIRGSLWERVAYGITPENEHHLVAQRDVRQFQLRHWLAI
# T2 sequence (P31652 whole entry): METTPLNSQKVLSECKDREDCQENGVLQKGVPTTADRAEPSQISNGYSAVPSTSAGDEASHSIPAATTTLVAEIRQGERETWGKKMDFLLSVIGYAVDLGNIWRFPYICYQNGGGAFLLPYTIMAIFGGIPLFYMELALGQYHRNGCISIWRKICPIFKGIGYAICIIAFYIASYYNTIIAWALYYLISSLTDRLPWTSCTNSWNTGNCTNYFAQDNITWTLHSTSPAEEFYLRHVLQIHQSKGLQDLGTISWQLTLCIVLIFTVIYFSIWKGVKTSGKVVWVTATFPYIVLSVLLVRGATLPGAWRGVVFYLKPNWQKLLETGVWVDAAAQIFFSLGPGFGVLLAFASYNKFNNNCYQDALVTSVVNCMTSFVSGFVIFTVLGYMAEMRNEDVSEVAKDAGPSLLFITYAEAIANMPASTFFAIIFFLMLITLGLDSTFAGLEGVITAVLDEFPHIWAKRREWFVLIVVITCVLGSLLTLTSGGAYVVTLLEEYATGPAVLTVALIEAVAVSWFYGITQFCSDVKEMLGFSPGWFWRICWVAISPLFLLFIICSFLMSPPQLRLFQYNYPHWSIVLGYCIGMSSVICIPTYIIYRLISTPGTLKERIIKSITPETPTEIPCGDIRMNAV
# T1 sequence (P23977 whole entry): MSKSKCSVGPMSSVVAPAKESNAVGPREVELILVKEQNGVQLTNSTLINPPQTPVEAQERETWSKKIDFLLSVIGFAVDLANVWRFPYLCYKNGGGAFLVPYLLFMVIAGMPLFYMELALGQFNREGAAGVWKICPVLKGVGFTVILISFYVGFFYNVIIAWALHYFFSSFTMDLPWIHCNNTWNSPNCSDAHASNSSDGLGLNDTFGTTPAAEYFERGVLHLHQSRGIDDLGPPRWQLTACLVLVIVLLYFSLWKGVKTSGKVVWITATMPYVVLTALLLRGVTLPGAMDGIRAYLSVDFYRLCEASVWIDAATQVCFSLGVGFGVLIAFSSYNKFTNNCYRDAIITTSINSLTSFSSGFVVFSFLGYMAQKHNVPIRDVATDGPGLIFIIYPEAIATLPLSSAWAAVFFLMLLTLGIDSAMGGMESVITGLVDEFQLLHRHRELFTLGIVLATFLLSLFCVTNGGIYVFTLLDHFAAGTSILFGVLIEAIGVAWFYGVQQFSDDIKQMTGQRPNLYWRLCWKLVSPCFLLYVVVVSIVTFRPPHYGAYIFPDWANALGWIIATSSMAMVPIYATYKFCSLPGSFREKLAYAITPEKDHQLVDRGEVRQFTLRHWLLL
"IC50 [1, 4] [µM]",IC50 [2] [µM],"IC50 [3, 5] [µM]",SMILES,IC50 [1] [µM],IC50 [3] [µM]
0.0031,> 1,0.0026,CCN(C(=O)CCC1CCNCC1)c1ccc(Br)c(Cl)c1 [N-(4-Bromo-3-chloro-phenyl)-N-ethyl-3-piperidin-4-yl-propionamide],–,–
0.0098,1.4,0.0019,"CCCN(C(=O)CCC1CCNCC1)c1ccc(Cl)c(Cl)c1 [N-(3,4-Dichloro-phenyl)-3-piperidin-4-yl-N-propyl-propionamide]",–,–
0.0063,> 1,0.0065,"CCN(C(=O)CCC1CCN(C)CC1)c1ccc(Cl)c(Cl)c1 [N-(3,4-Dichloro-phenyl)-N-ethyl-3-(1-methyl-piperidin-4-yl)-propionamide]",–,–
0.0068,> 1,0.0013,CCN(C(=O)CCC1CCN(C)CC1)c1ccc(Br)c(Cl)c1 [N-(4-Bromo-3-chloro-phenyl)-N-ethyl-3-(1-methyl-piperidin-4-yl)-propionamide],–,–
0.33,> 1,0.087,"CN1CCC(CCC(=O)N(C)c2ccc(Cl)c(Cl)c2)CC1 [N-(3,4-Dichloro-phenyl)-N-methyl-3-(1-methyl-piperidin-4-yl)-propionamide]",–,–
0.22,> 1,0.77,"CN(C(=O)CCC1CCNCC1)c1ccc(Cl)c(Cl)c1 [N-(3,4-Dichloro-phenyl)-N-methyl-3-piperidin-4-yl-propionamide]",–,–
0.011,2.1,0.011,"CCN(C(=O)CCC1CCNCC1)c1ccc(Cl)c(Cl)c1 [N-(3,4-Dichloro-phenyl)-N-ethyl-3-piperidin-4-yl-propionamide]",–,–

SMILES,"IC50 [1, 4] [µM]",IC50 [2] [µM],"IC50 [3, 5] [µM]",IC50 [1] [µM],IC50 [3] [µM]
"CCCN(C(=O)CCC1CCN(C)CC1)c1ccc(Cl)c(Cl)c1 [N-(3,4-Dichloro-phenyl)-3-(1-methyl-piperidin-4-yl)-N-propyl-propionamide]",–,0.82,–,0.01,0.001
